Test results: patent publication US20050014811A1, “Substituted benzimidazole compounds and their use for the treatment of cancer” (Aventis Pharma S.A., priority 2001, published 2005)

Legend:
[1] = biological target: CDK4/CyclinD1 (Homo sapiens, UniProt P11802); assay: CDK4/CyclinD1 Flashplate assay, 96-well format, biotinylated-Rb peptide substrate; format: biochemical
Outline: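 Biotinylated Rb peptide bound to streptavidin Flashplate; CDK4/CyclinD1 (70 ng/well) preincubated 30 min on ice with compound at 10, 3, 1, 0.3 and 0.1 μM final. Reaction with 1 μM cold ATP plus 33P-ATP for 45 min at RT; incorporated 33P counted, duplicates.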

[2] = biological target: CDK2/CyclinE (Homo sapiens, UniProt P24941); assay: CDK2/CyclinE Flashplate assay, 96-well format, biotinylated-Rb peptide substrate; format: biochemical
Method: This is a CDK2/CyclinE kinase assay in a 96-well Streptavidin-coated Flashplate with a biotinylated-Rb peptide substrate.
Each point is tested in duplicate
Biotinylated-Rb: Biotin-[…]-OH
• 1. Prepare substrate: 1 mg/ml solution made fresh in PBS. • 2. Add 4 μg per well to the Flashplate. • 3. Incubate for 2 hours at RT. • 4. From 10 mM inhibitor stocks in DMSO, make 1 mM, 300 μM, 100 μM, 30 μM and 10 μM series of dilution in DMSO. • 5. Was the Flashplate 3 times with 300 μl PBS to remove unbound peptide substrate. • 6. Add the CDK2/CyclinE kinase: 200 ng per well, in a volume of 90 μl in kinase buffer (except for “no enzyme” control wells). • 7. Add 1 μl per well of inhibitor to test 10 μM, 3 μM, 1 μM, 0.3 μM and 0.1 μM in final concentration per 100 μl in each well. • 8. Shake gently the Flashplate 1 minute. • 9. Incubate 30 minutes on wet ice. • 10. Initiate the reaction with 10 μl kinase buffer containing 1 μM final cold ATP and 1 μCi final ^33P-ATP per well. • 11. Shake gently the Flashplate 1 minute. • 12. Incubate 45 minutes at RT (no shaking). • 13. Wash the Flashplate 3 times with 300 μl PBS
14. Count to detect the incorporation of ^33P-ATP by the kinase to the Rb phosphorylation site.

CDK4/CyclinD1, sequence (P11802 whole entry, species assumed): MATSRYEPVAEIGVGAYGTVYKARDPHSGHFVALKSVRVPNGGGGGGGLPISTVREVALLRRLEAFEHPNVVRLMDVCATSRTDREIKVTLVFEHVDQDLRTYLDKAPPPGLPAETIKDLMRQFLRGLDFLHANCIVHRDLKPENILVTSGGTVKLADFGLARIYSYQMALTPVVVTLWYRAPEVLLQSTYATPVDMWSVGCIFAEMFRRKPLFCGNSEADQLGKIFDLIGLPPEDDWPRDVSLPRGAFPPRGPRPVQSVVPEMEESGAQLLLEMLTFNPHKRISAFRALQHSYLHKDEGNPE
CDK4/CyclinD1, sequence (P24385 whole entry partner, species assumed): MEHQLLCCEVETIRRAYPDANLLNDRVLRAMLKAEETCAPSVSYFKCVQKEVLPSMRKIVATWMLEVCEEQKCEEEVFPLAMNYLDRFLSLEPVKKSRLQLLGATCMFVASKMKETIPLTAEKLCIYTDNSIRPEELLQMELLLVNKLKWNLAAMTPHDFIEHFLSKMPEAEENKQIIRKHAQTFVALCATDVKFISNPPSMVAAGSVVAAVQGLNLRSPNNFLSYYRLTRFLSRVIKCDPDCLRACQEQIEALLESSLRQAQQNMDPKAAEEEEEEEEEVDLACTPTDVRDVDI

Row | SMILES | IC50 [1] | IC50 [2] | inhibition at 10 µM [1]
1 | COC(=O)Nc1nc2cc(OS(=O)(=O)c3ccc(-c4cc(C(F)(F)F)n(C)n4)s3)ccc2[nH]1 [Example 62-e, 5-(1-Methyl-5-trifluoromethyl-1H-pyrazol-3-yl)-thiophene-2-sulfonic acid 2-methoxycarbonylamino-1H-benzoimidazol-5-yl ester] | 4600 nM | 1000 nM | –
2 | CN(C)C(=O)Nc1nc2cc(OS(=O)(=O)c3ccc(NC4CCCC4)cc3)ccc2[nH]1 [Example 32, N-[5-(4-cyclopentylaminophenylsulfonyloxy)-1H-benzimidazole-2-yl]-dimethylurea] | > 5000 nM | 1100 nM | –
3 | COC(=O)CCCC(=O)Nc1nc2cc(OS(=O)(=O)c3ccc(NC4CCCC4)cc3)ccc2[nH]1 [Example 26, 4-[5-(4-Cyclopentylamino-benzenesulfonyloxy)-1H-benzoimidazol-2-ylcarbamoyl]-butyric acid methyl ester] | 680 nM | 130 nM | –
4 | O=C(NCCCN1CCCC1)Nc1nc2cc(OS(=O)(=O)c3ccc(NCC4CCCO4)cc3)ccc2[nH]1 (stereo not shown) [Example 59-h, 4-[(Tetrahydro-furan-2-ylmethyl)-amino]-benzenesulfonic acid 2-[3-(3-pyrrolidin-1-yl-propyl)-ureido]-1H-benzoimidazol-5-yl ester] | 1100 nM | 200 nM | –
5 | COC(=O)CCC(=O)Nc1nc2cc(OS(=O)(=O)c3ccc(-n4ccnc4)cc3)ccc2[nH]1 [Example 23, N-[5-(4-Imidazol-1-yl-benzenesulfonyloxy)-1H-benzoimidazol-2-yl]-succinamic acid methyl ester] | 3100 nM | 400 nM | –
6 | COCC(=O)Nc1nc2cc(OS(=O)(=O)c3ccc(NC4CCCC4)cc3)ccc2[nH]1 [Example 28, 4-Cyclopentylamino-benzenesulfonic acid 2-(2-methoxy-acetylamino)-1H-benzoimidazol-5-yl ester] | 1030 nM | 600 nM | –
7 | O=C(Nc1nc2cc(OS(=O)(=O)c3ccc(-n4ccnc4)cc3)ccc2[nH]1)N1CCC1 [Example 57-i, 4-Imidazol-1-yl-benzenesulfonic acid 2-[(azetidine-1-carbonyl)-amino]-1H-benzoimidazol-5-yl ester] | – | 5200 nM | 27%
8 | O=C(NCc1ccccc1Cl)Nc1nc2cc(OS(=O)(=O)c3ccc(NC4CCCC4)cc3)ccc2[nH]1 [Example 58-g, 4-Cyclopentylamino-benzenesulfonic acid 2-[3-(2-chloro-benzyl)-ureido]-1H-benzoimidazol-5-yl ester] | – | 1000 nM | 69%
9 | O=C(NCCN1CCCC1)Nc1nc2cc(OS(=O)(=O)c3ccc(NC4CCCC4)cc3)ccc2[nH]1 [Example 58-ai, 4-Cyclopentylamino-benzenesulfonic acid 2-[3-(2-pyrrolidin-1-yl-ethyl)-ureido]-1H-benzoimidazol-5-yl ester] | 330 nM | 150 nM | –
10 | O=C(NCCOCCO)Nc1nc2cc(OS(=O)(=O)c3ccc(NC4CCCC4)cc3)ccc2[nH]1 [Example 58-af, 4-Cyclopentylamino-benzenesulfonic acid 2-{3-[2-(2-hydroxy-ethoxy)-ethyl]-ureido}-1H-benzoimidazol-5-yl ester] | 210 nM | 180 nM | –
11 | O=C(Nc1nc2cc(OS(=O)(=O)c3ccc(NC4CCCC4)cc3)ccc2[nH]1)Nc1ccccc1F [Example 37, 4-Cyclopentylamino-benzenesulfonic acid 2-[3-(2-fluoro-phenyl)-ureido]-1H-benzoimidazol-5-yl ester] | 570 nM | 450 nM | –
12 | COC(=O)Nc1nc2cc(OS(=O)(=O)c3ccc(NC(C)C)cc3)ccc2[nH]1 [Example 10, Methyl-5-(4-isopropylaminophenylsulfonyloxy) benzimidazole-2-carbamate] | 700 nM | 800 nM | –
13 | COC(=O)Nc1nc2cc(OS(=O)(=O)c3ccc(N)cc3)ccc2[nH]1 [Example 16, Methyl-5-(4-aminophenylsulfonyloxy)benzimidazole-2-carbamate] | 370 nM | 1800 nM | –
14 | CCN(CC)CCNc1ccc(S(=O)(=O)Oc2ccc3[nH]c(NC(=O)OC)nc3c2)cc1 [Example 17, Methyl-5-(4-[2-diethylaminoethyl]aminophenyl-sulfonyloxy) benzimidazole-2-carbamate] | 6300 nM | 2000 nM | –
15 | O=C(NCCN1CCOCC1)Nc1nc2cc(OS(=O)(=O)c3ccc(NC4CCCC4)cc3)ccc2[nH]1 [Example 58-v, 4-Cyclopentylamino-benzenesulfonic acid 2-[3-(2-morpholin-4-yl-ethyl)-ureido]-1H-benzoimidazol-5-yl ester] | 110 nM | 100 nM | –
16 | CN(C)c1ccc(Nc2nc3cc(OS(=O)(=O)c4ccc(NC5CCCC5)cc4)ccc3[nH]2)cc1 [Example 70-e, 4-Cyclopentylamino-benzenesulfonic acid 2-(4-dimethylamino-phenylamino)-1H-benzoimidazol-5-yl ester] | 500 nM | 800 nM | –
17 | O=C(Nc1nc2cc(OS(=O)(=O)c3ccc(-n4ccnc4)cc3)ccc2[nH]1)NC1CCCC1 [Example 57-c, 4-Imidazol-1-yl-benzenesulfonic acid 2-(3-cyclopentyl-ureido)-1H-benzoimidazol-5-yl ester] | – | 600 nM | 60%
18 | CN1CCN(c2ccc(Nc3nc4cc(OS(=O)(=O)c5ccc(NC6CCCC6)cc5)ccc4[nH]3)cc2)CC1 [Example 70-h] | 140 nM | 250 nM | –

The remaining lines, values ahead:

Row | IC50 [1] | IC50 [2] | inhibition at 10 µM [1] | SMILES
19 | 2800 nM | 60 nM | – | O=C(NCc1cccc(F)c1)Nc1nc2cc(OS(=O)(=O)c3ccc(NC4CCCC4)cc3)ccc2[nH]1 [Example 41, 4-Cyclopentylamino-benzenesulfonic acid 2-[3-(3-fluoro-benzyl)-ureido]-1H-benzoimidazol-5-yl ester]
20 | 1000 nM | 80 nM | – | O=C(NCc1ccncc1)Nc1nc2cc(OS(=O)(=O)c3ccc(NC4CCCC4)cc3)ccc2[nH]1 [Example 52, 4-Cyclopentylamino-benzenesulfonic acid 2-(3-pyridin-4-ylmethyl-ureido)-1H-benzoimidazol-5-yl ester]
21 | 500 nM | 40 nM | – | CN1CCN(CCCNC(=O)Nc2nc3cc(OS(=O)(=O)c4ccc(NC5CCCC5)cc4)ccc3[nH]2)CC1 [Example 58-k, 4-Cyclopentylamino-benzenesulfonic acid 2-{3-[3-(4-methyl-piperazin-1-yl)-propyl]-ureido}-1H-benzoimidazol-5-yl ester]
22 | 220 nM | 2 nM | – | O=C(NCCCCO)Nc1nc2cc(OS(=O)(=O)c3ccc(NC4CCCC4)cc3)ccc2[nH]1 [Example 58-ab, 4-Cyclopentylamino-benzenesulfonic acid 2-[3-(4-hydroxy-butyl)-ureido]-1H-benzoimidazol-5-yl ester]
23 | 180 nM | 17 nM | – | O=C(NCCCN1CCCC1=O)Nc1nc2cc(OS(=O)(=O)c3ccc(NCC4CCCO4)cc3)ccc2[nH]1 (stereo not shown) [Example 59-p, 4-[(Tetrahydro-furan-2-ylmethyl)-amino]-benzenesulfonic acid 2-{3-[3-(2-oxo-pyrrolidin-1-yl)-propyl]-ureido}-1H-benzoimidazol-5-yl ester]
24 | 500 nM | 100 nM | – | CNC(=O)Nc1nc2cc(OS(=O)(=O)c3ccc(NC4CCCC4)cc3)ccc2[nH]1 [Example 31, N-[5-(4-cyclopentylaminophenylsulfonyloxy)-1H-benzimidazole-2-yl]-methylurea]
25 | 330 nM | 30 nM | – | CCN1CCCC1CNC(=O)Nc1nc2cc(OS(=O)(=O)c3ccc(NC4CCCC4)cc3)ccc2[nH]1 (stereo not shown) [Example 58-ah, 4-Cyclopentylamino-benzenesulfonic acid 2-[3-(1-ethyl-pyrrolidin-2-ylmethyl)-ureido]-1H-benzoimidazol-5-yl ester]
26 | 12 nM | 60 nM | – | O=C(O)CNC(=O)Nc1nc2cc(OS(=O)(=O)c3ccc(NC4CCCC4)cc3)ccc2[nH]1 [Example 46, {3-[5-(4-Cyclopentylamino-benzenesulfonyloxy)-1H-benzoimidazol-2-yl]-ureido}-acetic acid]
27 | 300 nM | 20 nM | – | O=C(NCc1ccccn1)Nc1nc2cc(OS(=O)(=O)c3ccc(NCC4CCCO4)cc3)ccc2[nH]1 (stereo not shown) [Example 59-k, 4-[(Tetrahydro-furan-2-ylmethyl)-amino]-benzenesulfonic acid 2-(3-pyridin-2-ylmethyl-ureido)-1H-benzoimidazol-5-yl ester]
28 | 290 nM | 10 nM | – | O=C(NCC1CCNCC1)Nc1nc2cc(OS(=O)(=O)c3ccc(NC4CCCC4)cc3)ccc2[nH]1 [Example 58-u, 4-Cyclopentylamino-benzenesulfonic acid 2-(3-piperidin-4-ylmethyl-ureido)-1H-benzoimidazol-5-yl ester]
29 | 240 nM | 30 nM | – | COC(=O)CCCNC(=O)Nc1nc2cc(OS(=O)(=O)c3ccc(NC4CCCC4)cc3)ccc2[nH]1 [Example 58-m, 4-{3-[5-(4-Cyclopentylamino-benzenesulfonyloxy)-1H-benzoimidazol-2-yl]-ureido}-butyric acid methyl ester]
